Data from PubChem BioAssay (NCI).
Where “and” joins values, the source holds several entries; their conditions need not be identical. Equal values may be shown once.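 A five-concentration, 48-hour dose response in 96-well plates underlies each endpoint, interpolated linearly between surrounding concentrations. Here, GI50 denotes the concentration required for 50% inhibition of growth. The concentration for full growth arrest is given as TGI.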

Experiments:
Assay in all cases: DTP human tumour cell line panel, 48 h
786-0 renal = system: 786-0 renal
HCC-2998 colon = system: HCC-2998 colon
MOLT-4 leukemia = system: MOLT-4 leukemia
TK-10 renal = system: TK-10 renal
HL-60(TB) leukemia = system: HL-60(TB) leukemia
SW-620 colon = system: SW-620 colon
KM12 colon = system: KM12 colon
SK-OV-3 ovarian = system: SK-OV-3 ovarian
SR leukemia = system: SR leukemia

| Compound | TGI (786-0 renal) [µM] | TGI (HCC-2998 colon) [µM] | TGI (MOLT-4 leukemia) [µM] | TGI (TK-10 renal) | TGI (HL-60(TB) leukemia) [µM] | TGI (SW-620 colon) [µM] | TGI (KM12 colon) | TGI (SK-OV-3 ovarian) [µM] | GI50 (786-0 renal) [µM] | GI50 (HCC-2998 colon) [µM] | GI50 (TK-10 renal) | GI50 (HL-60(TB) leukemia) | GI50 (SW-620 colon) [µM] | GI50 (KM12 colon) | GI50 (SK-OV-3 ovarian) | GI50 (SR leukemia) [µM] | TGI (SR leukemia) [µM] | GI50 (MOLT-4 leukemia) [µM] |
| --- | --- | --- | --- | --- | --- | --- | --- | --- | --- | --- | --- | --- | --- | --- | --- | --- | --- | --- |
| Cc1ccc([Se][Se]c2ccc(C)cc2)cc1 | 46.5 | > 100 | > 100 | > 100 µM | 19.2 | 51.6 | > 100 µM | > 100 | – | – | – | – | – | – | – | – | – | – |
| COc1cccc2c(Nc3ccc(C(=O)NCCN(C)C)cc3)cc(-c3ccccc3)nc12 | 14.2 | 24.9 | – | 57.2 µM | 39.9 | 33.4 | 43.2 µM | 71.2 | 2.26 | 11.5 | 23.8 µM | 14.9 µM | 14 | 19.7 µM | 29.4 µM | 1.86 | 7.52 | – |
| C1C[OH+]CC[OH+]CC[OH+]CC[OH+]CC[OH+]CC[OH+]1.[Cl-].[Ta+5] | > 100 | > 100 | > 100 | > 100 µM | > 100 | > 100 | > 100 µM | > 100 | > 100 | > 100 | > 100 µM | > 100 µM | > 100 | > 100 µM | > 100 µM | – | – | > 100 |
| O=C1CCC(=O)C12CCc1cccc(O)c12 | > 100 | > 100 | – | > 100 µM | > 100 | > 100 | – | > 100 | – | – | – | – | – | – | – | – | – | – |
| O=C1CC(c2c[nH]c3ccccc23)C(=O)N1c1ccccc1 (stereo not given) | > 100 | > 100 | > 100 | > 100 µM | > 100 | > 100 | > 100 µM | > 100 | – | – | – | – | – | – | – | – | – | – |
| O=C(O/N=C1/CCCC/C1=C\c1ccccc1)c1ccc(Cl)cc1 | > 100 | 36.2 | – | > 100 µM | > 100 | > 100 | > 100 µM | > 100 | – | – | – | – | – | – | – | – | > 100 | – |
| COP1(=S)OCC2CCC[C@@H]2O1 (stereo not given in full) | > 100 | > 100 | > 100 | > 100 µM | > 100 | > 100 | > 100 µM | – | – | – | – | – | – | – | – | – | > 100 | – |
| CCc1cccc(C(C)CC)c1NC(=O)CC1C(=O)Nc2ccccc2S1=O (stereo not given) | > 100 | > 100 | 69 | > 100 µM | > 100 | > 100 | – | – | – | – | – | – | – | – | – | – | 73.6 | – |
| COC(=O)C(=O)C(C#N)c1ccc(Cl)c(Cl)c1 (stereo not given) | > 100 | – | > 100 | > 100 µM | > 100 | > 100 | > 100 µM | > 100 | – | – | – | – | – | – | – | – | > 100 | – |
| Cc1cccc(N2C(=O)C(=O)C(c3nc4ccccc4s3)C(=O)C2=O)c1C | > 100 | > 100 | > 100 | > 100 µM | – | > 100 | – | > 100 | – | – | – | – | – | – | – | – | > 100 | – |
| COc1cc2c3c(n(CCCNCCN4CCOCC4)c(=O)c2cc1OC)-c1cc2c(cc1C3=O)OCO2 | 5.23 | – | 19.7 | 14.8 µM and 23.5 µM | – | 1.33 | 1.6 µM and 4.69 µM | – | 1.97 | – | 7.2 µM and 7.5 µM | 0.321 µM and 2.7 µM | 0.0762 | 0.554 µM and 1.48 µM | 4.68 µM and 1.27 µM | < 0.005 | – | < 0.005 |
| COc1ccc(CCC2NCCc3cc(OC)c(OC)cc32)cc1 (stereo not given) | > 100 | > 100 | > 100 | > 100 µM | – | > 100 | > 100 µM | – | – | – | – | – | – | – | – | – | – | – |
| CC1=N/C(=C\c2cccc3ccccc23)C(=O)O1 | > 100 | > 100 | > 100 | > 100 µM | > 100 | > 100 | > 100 µM | – | – | – | – | – | – | – | – | – | – | – |
| Cn1cnc([N+](=O)[O-])c1Sc1nnc(C(F)(F)F)n1C | > 100 | > 100 | 38.2 | 74.4 µM | – | 43.3 | > 100 µM | > 100 | – | – | – | – | – | – | – | – | 45 | – |
| CCCCCCCCCC(=O)N[C@H]1CCc2cc(OC)c(OC)c(OC)c2-c2ccc(SC)c(=O)cc21 | 10.4 | 0.0563 | > 100 | 25.5 µM | 0.223 | > 100 | 0.0436 µM | 0.0678 | – | – | – | – | – | – | – | – | – | – |
| CCOC(=O)C1(C(=O)OCC)CC=C(C)CC12C(=O)Nc1ccccc12 (stereo not given) | > 100 | > 100 | > 100 | > 100 µM | > 100 | > 100 | > 100 µM | > 100 | – | – | – | – | – | – | – | – | – | – |
| CN(Cc1ccccc1)C1(N(C)Cc2ccccc2)CC1 | > 100 | > 100 | > 100 | > 100 µM | > 100 | > 100 | > 100 µM | > 100 | – | – | – | – | – | – | – | – | – | – |
| CN(C)CCNC(=O)c1cccc2c1nc(-c1ccccn1)c1ccccc12 | 43.7 | 32.4 | – | – | 34.8 | 27.3 | > 100 µM | 37.3 | – | – | – | – | – | – | – | – | – | – |
| Cc1nn(C)c(=S)n(C)c1=O | 20.3 | > 100 | > 100 | 26.2 µM | 6.47 | > 100 | – | 42.8 | – | – | – | – | – | – | – | – | – | – |
| CC1=N/C(=C\c2ccc([N+](=O)[O-])cc2)C(=O)O1 | > 100 | > 100 | > 100 | > 100 µM | > 100 | > 100 | > 100 µM | – | – | – | – | – | – | – | – | – | – | – |
